According to patent publication US20030157174A1, “Enteric granular preparations of hardly water soluble drugs characterized by containing water-repellent component” (priority 2002, published 2003):
Converted amounts (≈) assume the structure as drawn.

Assay: Solubilities of Compound A to several test solutions
Type: physicochemical
From the text: Compound A was used as an insoluble active ingredient in the following references and examples.

Final pH (test solution JP-1 Sol.): 1.15
Final pH (test solution JP-2 Sol.): 6.84
Solubility 3 hours (test solution JP-2 Sol.): 81.08 µg/mL (≈ 184 µM)
Solubility 6 hours (test solution JP-2 Sol.): 81.65 µg/mL (≈ 185 µM)
Final pH (test solution Water): 5.81
Solubility 3 hours (test solution Water): 5.56 µg/mL (≈ 12.6 µM)
Solubility 6 hours (test solution Water): 5.93 µg/mL (≈ 13.4 µM)
Final pH (test solution pH4.0): 4.07
Final pH (test solution pH6.0): 6.08
Solubility 3 hours (test solution pH6.0): 15.19 µg/mL (≈ 34.4 µM)
Solubility 6 hours (test solution pH6.0): 15.57 µg/mL (≈ 35.3 µM)
Final pH (test solution pH7.8): 7.6
Solubility 3 hours (test solution pH7.8): 487.87 µg/mL (≈ 1100 µM)
Solubility 6 hours (test solution pH7.8): 489.05 µg/mL (≈ 1110 µM)
Final pH (test solution pH8.0): 7.76
Solubility 3 hours (test solution pH8.0): 652.56 µg/mL (≈ 1480 µM)
Solubility 6 hours (test solution pH8.0): 675.55 µg/mL (≈ 1530 µM)
Final pH (test solution pH8.5): 8.29
Solubility 3 hours (test solution pH8.5): 6197.64 µg/mL (≈ 14000 µM)
Solubility 6 hours (test solution pH8.5): 6224.39 µg/mL (≈ 14100 µM)
SMILES: CC1(C)[C@H]2C[C@H](C/C=C\CCCC(=O)O)[C@@H](NC(=O)c3csc4ccc(O)cc34)[C@@H]1C2 [Compound A, (Z)-7-[(1R,2R,3S,5S)-2-(5-hydroxybenzo[b]thiophen-3-ylcarbonylamino)-10-norpinan-3-yl]-5-heptenoic acid]
